Columns and labels:
[1] = target: T1, PAR2 (HT-29 cells, trypsin activation) (Homo sapiens, UniProt P55085); experiment: Ca FLIPR TETRA assay, ANTAGONIST mode, stimulation with 3.1 U/mL trypsin; format: cell-based; conditions: HT-29 cells
T1 construct: host or cells: HT-29 cells
T1 sequence (P55085 26-397): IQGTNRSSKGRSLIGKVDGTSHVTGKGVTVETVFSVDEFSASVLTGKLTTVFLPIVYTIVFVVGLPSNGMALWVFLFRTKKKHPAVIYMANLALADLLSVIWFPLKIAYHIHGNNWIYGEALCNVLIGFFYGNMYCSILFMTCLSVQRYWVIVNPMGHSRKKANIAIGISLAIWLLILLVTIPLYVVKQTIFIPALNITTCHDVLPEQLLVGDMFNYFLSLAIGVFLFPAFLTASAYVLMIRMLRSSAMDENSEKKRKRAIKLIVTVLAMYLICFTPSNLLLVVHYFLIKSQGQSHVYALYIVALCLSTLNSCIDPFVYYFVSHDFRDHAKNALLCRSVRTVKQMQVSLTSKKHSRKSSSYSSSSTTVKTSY
How it was run: (§1)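 Antagonist-mode assay: dye-loaded HT-29 cells, compound 30 min at r.t., then stimulated with final 8 μM SLIGKV, 3.1 U/mL trypsin, 1 U/mL thrombin or 0.6 μM UTP; calcium fluorescence read.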

[2] = target: T2, PAR2 (HT-29 cells, SLIGKV activation) (Homo sapiens, UniProt P55085); experiment: Ca FLIPR TETRA assay, ANTAGONIST mode, stimulation with 8 μM SLIGKV; format: cell-based; conditions: HT-29 cells
T2 construct: host or cells: HT-29 cells
T2 sequence (P55085 26-397): T1 sequence (P55085 26-397)
How it was run: as §1

[3] = system: Thrombin-stimulated Ca2+ response in HT-29 cells; experiment: Ca FLIPR TETRA assay, ANTAGONIST mode, stimulation with 1 U/mL Thrombin; format: cell-based, human; conditions: Homo sapiens, HT-29 cells
How it was run: as §1

[4] = system: UTP-stimulated Ca2+ response in HT-29 cells; experiment: Ca FLIPR TETRA assay, ANTAGONIST mode, stimulation with 0.6 μM UTP; format: cell-based, human; conditions: Homo sapiens, HT-29 cells
How it was run: as §1

[5] = antagonist mode, stimulation with 3.1 U/mL trypsin
[6] = antagonist mode, stimulation with 8 μM SLIGKV
[7] = antagonist mode, stimulation with 1 U/mL Thrombin
[8] = antagonist mode, stimulation with 0.6 μM UTP
[9] = stimulation with 3.1 U/mL trypsin
[10] = stimulation with 1 U/mL Thrombin
[11] = antagonist mode, 3.1 U/mL trypsin
[12] = antagonist mode, 1 U/mL Thrombin

Structure (SMILES)	IC50 [1, 5] [nM]	IC50 [2, 6] [nM]	IC50 [3, 7] [nM]	IC50 [4, 8] [nM]	IC50 [1, 9] [nM]	IC50 ([2]; stimulation with 8 μM SLIGKV) [nM]	IC50 [3, 10] [nM]	IC50 ([4]; stimulation with 0.6 μM UTP) [nM]	other results
Cc1ccc(-c2cc(C(C)C)c3nc(C(=O)N4CCN(C(=O)C5CC(C)(O)C5)CC4(C)C)cn3n2)cc1F (stereo not shown) [Compound I-338]	1.6	2.2	> 1000	> 1000					
Cc1noc(C2CCCCN2C(=O)c2cn3nc(-c4ccc(F)cc4)cc(C(F)(F)F)c3n2)n1 (stereo not shown) [Compound I-72]					1500	1400	50000	> 50000	
Cc1cc(C(=O)N2CCN(C(=O)c3cn4nc(-c5ccc(C(F)(F)F)cc5)cc(C(C)(C)C)c4n3)C(C)(C)C2)[nH]n1 [Compound I-402]	1	0.8	> 1000	> 1000					
CC(C)c1cc(-c2ccc(Cl)cc2)nn2cc(C(=O)N3CCN(C(=O)[C@H]4C[C@H](C(=O)O)C4)CC3(C)C)nc12 [Compound I-554]									IC50 [1, 11]: 11.2 nM; IC50 ([2]; antagonist mode, 8 μM SLIGKV): 9.3 nM; IC50 [3, 12]: > 1000 nM; IC50 ([4]; antagonist mode, 0.6 μM UTP): > 1000 nM
Cc1cc(-c2cc(C(C)C)c3nc(C(=O)N4CCN(C(=O)c5ccn[nH]5)CC4(C)C)cn3n2)ccc1F [Compound I-261]	6.5	3.5	> 1000	> 1000					
CC(C)(C)c1cc(-c2ccc(F)cc2)nn2cc(C(=O)N3CCN(C(=O)C4CCCO4)CC3(C)C)nc12 (stereo not shown) [Compound I-200]	2.9	2.4	> 1000	> 1000					
CC(C)(C)c1cc(-c2ccc(F)cc2)nn2cc(C(=O)N3CCNCC3(C)C)nc12 [Compound I-205]	580	310	> 1000	> 1000					
Cc1ncc(C(=O)N2CCN(C(=O)c3cn4nc(-c5ccc(C)c(F)c5)cc(C(C)(C)C)c4n3)C(C)(C)C2)[nH]1 [Compound I-431]	1.6	1.4	> 1000	> 1000					
CC(C)c1cc(C2=CCCCC2)nn2cc(C(=O)N3CCN(C(=O)C4(O)CCC4)CC3(C)C)nc12 [Compound I-40, [6-(Cyclohexen-1-yl)-8-isopropyl-imidazo[1,2-b]pyridazin-2-yl]-[4-(1-hydroxycyclobutanecarbonyl)-2,2-dimethyl-piperazin-1-yl]methanone]					370	72	24000	17000	
CC(O)C(=O)N1CCN(C(=O)c2cn3nc(-c4ccc(F)cc4)cc(C(C)C)c3n2)C[C@@H]1C (stereo partly shown) [Compound I-119]					2100	200	> 50000	> 50000	
Cc1ccc(-c2cc(C(C)(C)C)c3nc(C(=O)N4CCN(C(=O)c5ccn[nH]5)CC4(C)C)cn3n2)cc1 [Compound I-394]	1.1	0.9	> 1000	> 1000					
Cc1cc(-c2cc(C(C)C)c3nc(C(=O)N4CCN(C(=O)c5ccncn5)CC4(C)C)cn3n2)ccc1F [Compound I-262]	14.5	9.2	> 1000	> 1000					
CC(C)(C)c1cc(-c2ccc(F)cc2)nn2cc(C(=O)N3CCN(C(=O)C4(C(=O)O)CC4)CC3(C)C)nc12 [Compound I-562]									IC50 [1, 11]: 128 nM; IC50 ([2]; antagonist mode, 8 μM SLIGKV): 28 nM; IC50 [3, 12]: > 1000 nM; IC50 ([4]; antagonist mode, 0.6 μM UTP): > 1000 nM
Cc1nnc(C(=O)N2CCN(C(=O)c3cn4nc(-c5ccc(C(F)F)cc5)cc(C(C)C)c4n3)C(C)(C)C2)o1 [Compound I-299]	53	37.3	> 1000	> 1000					
Cc1cc(C)n(CCC(=O)N2CCN(C(=O)c3cn4nc(-c5ccc(F)cc5)cc(C(C)C)c4n3)C[C@@H]2C)n1 [Compound I-134]					280	12	10000	7900	
CC(C)c1cc(-c2ccc(F)cc2)nn2cc(C(=O)N3CCN(C(=O)[C@H](O)C4CCCCC4)[C@@H](C)C3)nc12 [Compound I-114]					0.6	0.5	7700	8700	
CC(C)c1cc(-c2ccc(F)cc2)nn2cc(C(=O)N3CCN(C(=O)C4(O)CC4)[C@@H](C)C3)nc12 [Compound I-115]					160	100	> 50000	> 50000	

Structure (SMILES)	IC50 [1, 5] [nM]	IC50 [2, 6] [nM]	IC50 [3, 7] [nM]	IC50 [4, 8] [nM]	IC50 [1, 9] [nM]	IC50 ([2]; stimulation with 8 μM SLIGKV) [nM]	IC50 [3, 10] [nM]	IC50 ([4]; stimulation with 0.6 μM UTP) [nM]	other results
CC(C)(C)c1cc(-c2ccc(Cl)cc2)nn2cc(C(=O)N3CCN(C(=O)c4ncccn4)CC3(C)C)nc12 [Compound I-445]	0.9	0.4	> 1000	> 1000					
CC(C)c1cc(C#CC2CC2)nn2cc(C(=O)N3CCN(C(=O)C4(O)CCC4)CC3(C)C)nc12 [Compound I-42, [6-(2-Cyclopropylethynyl)-8-isopropyl-imidazo[1,2-b]pyridazin-2-yl]-[4-(1-hydroxycyclobutanecarbonyl)-2,2-dimethyl-piperazin-1-yl]methanone]					5200	2200	32000	41000	
Cc1n[nH]cc1C(=O)N1CCN(C(=O)c2cn3nc(-c4ccc(F)cc4)cc(C(C)(C)C)c3n2)C(C)(C)C1 [Compound I-292]	2.2	2.4	> 1000	> 1000					
CC(C)(C)C[C@@H](O)C(=O)N1CCN(C(=O)c2cn3nc(-c4ccc(F)cc4)cc(C(F)(F)F)c3n2)CC1 [Compound I-52]					350	140	47000	16000	
O=C1CCN(C(=O)c2cn3nc(-c4ccc(F)cc4)cc(C(F)(F)F)c3n2)CC1 [Compound I-66]					12000	5000	48000	> 50000	
COCC(C)(C)c1cc(-c2ccc(F)cc2)nn2cc(C(=O)N3CCNC(=O)C3(C)C)nc12 [Compound I-193]	46	5.3	10000	19000					
CC(C)c1cc(-c2ccc(F)c(Cl)c2)nn2cc(C(=O)N3CCN(C(=O)[C@H]4CC[C@H](C(=O)O)CC4)CC3(C)C)nc12 [Compound I-496]	101	55.3	> 1000	> 1000					
Cc1cc(C(=O)N2CCN(C(=O)c3cn4nc(-c5ccc(Cl)cc5)cc(C(C)(C)C)c4n3)C(C)(C)C2)[nH]n1 [Compound I-434]	0.5	0.5	> 1000	> 1000					
CC(C)(C)c1cc(-c2ccc(C(F)(F)F)cc2)nn2cc(C(=O)N3CCN(C(=O)c4ccccn4)CC3(C)C)nc12 [Compound I-398]	2.6	3.1	> 1000	> 1000					
CCCCC(O)C(=O)N1CCN(C(=O)c2cn3nc(-c4ccc(F)cc4)cc(C(C)C)c3n2)C[C@@H]1C (stereo partly shown) [Compound I-107]					4	1	10000	9600	
COC(=O)C1CC(C(=O)N2CCN(C(=O)c3cn4nc(-c5ccc(F)cc5)cc(C(C)(C)C)c4n3)C(C)(C)C2)C1 (stereo not shown) [Compound I-537]	1.2	0.8	> 1000	> 1000					
CC(C)c1cc(-c2ccc(F)cc2)nn2cc(C(=O)N3CCN(C(=O)Cc4cccnc4)[C@@H](C)C3)nc12 [Compound I-142]					280	35	26000	24000	
CC(C)c1cc(-c2ccc(F)cc2)nn2cc(C(=O)N3CCN(C(=O)C4(NC(=O)OC(C)(C)C)CCCCC4)[C@@H](C)C3)nc12 [Compound I-150]					230	74	> 50000	84000	
CC(C)c1cc(C(C)C)c2nc(C(=O)N3CCN(C(=O)C4CCC(C(=O)O)CC4)CC3(C)C)cn2n1 (stereo not shown) [Compound I-551, 4-[4-(6,8-diisopropylimidazo[1,2-b]pyridazine-2-carbonyl)-3,3-dimethyl-piperazine-1-carbonyl]cyclohexanecarboxylic acid]	1500	970	> 30000	> 30000					
Cc1cc(-c2cc(C(C)C)c3nc(C(=O)N4CCN(C(=O)C5CC(C)(O)C5)CC4(C)C)cn3n2)ccc1F (stereo not shown) [Compound I-378]	7.2	5	> 1000	> 1000					
COC(=O)C1(C)CCC(C(=O)N2CCN(C(=O)c3cn4nc(-c5ccc(Cl)cc5)cc(C(C)(C)C)c4n3)C(C)(C)C2)CC1 (stereo not shown) [Compound I-532]	1.1	0.8	> 1000	> 1000					
C[C@@H]1C(=O)NCCN1C(=O)c1cn2nc(-c3ccc(F)cc3)cc(C(C)(C)C)c2n1 [Compound I-548]	> 1000	545	> 1000	> 1000					

From patent publication US20190119282A1, “IMIDAZOPYRIDAZINES USEFUL AS INHIBITORS OF THE PAR-2 SIGNALING PATHWAY” (Vertex Pharmaceuticals Incorporated, priority 2013, published 2019)
